# According to BindingDB's records for doi:10.1016/0014-2999(92)90578-r (Novo Nordisk, 1992):
# pKi: −log10 of the molar value. Several values for one entry are separate records, joined by “and”; a condition that tells them apart may be missing. Identical values can stand only once.
# How the values were obtained:
# [1] = target: 5-hydroxytryptamine receptor 2A (Rattus norvegicus, UniProt P14842)
# [2] = target: Adenylate cyclase type 2 (Rattus norvegicus, UniProt P26769)
# [3] = target: D(2) dopamine receptor (Rattus norvegicus, UniProt P61169)
# D(2) dopamine receptor, sequence (P61169 whole entry): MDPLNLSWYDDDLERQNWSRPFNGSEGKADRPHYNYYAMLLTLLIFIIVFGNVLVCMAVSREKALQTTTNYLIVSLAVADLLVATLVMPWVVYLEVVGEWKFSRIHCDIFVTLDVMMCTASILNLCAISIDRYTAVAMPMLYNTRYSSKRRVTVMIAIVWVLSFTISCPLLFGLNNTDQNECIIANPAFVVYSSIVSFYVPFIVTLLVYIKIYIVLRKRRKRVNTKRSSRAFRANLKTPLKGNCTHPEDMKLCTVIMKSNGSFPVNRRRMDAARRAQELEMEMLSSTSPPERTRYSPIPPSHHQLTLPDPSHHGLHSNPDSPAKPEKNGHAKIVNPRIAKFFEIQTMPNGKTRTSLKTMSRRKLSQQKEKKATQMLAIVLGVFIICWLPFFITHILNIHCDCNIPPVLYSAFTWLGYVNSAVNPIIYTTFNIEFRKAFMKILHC
# [4] = target: D(1A) dopamine receptor (Rattus norvegicus, UniProt P18901)
# D(1A) dopamine receptor, sequence (P18901 whole entry): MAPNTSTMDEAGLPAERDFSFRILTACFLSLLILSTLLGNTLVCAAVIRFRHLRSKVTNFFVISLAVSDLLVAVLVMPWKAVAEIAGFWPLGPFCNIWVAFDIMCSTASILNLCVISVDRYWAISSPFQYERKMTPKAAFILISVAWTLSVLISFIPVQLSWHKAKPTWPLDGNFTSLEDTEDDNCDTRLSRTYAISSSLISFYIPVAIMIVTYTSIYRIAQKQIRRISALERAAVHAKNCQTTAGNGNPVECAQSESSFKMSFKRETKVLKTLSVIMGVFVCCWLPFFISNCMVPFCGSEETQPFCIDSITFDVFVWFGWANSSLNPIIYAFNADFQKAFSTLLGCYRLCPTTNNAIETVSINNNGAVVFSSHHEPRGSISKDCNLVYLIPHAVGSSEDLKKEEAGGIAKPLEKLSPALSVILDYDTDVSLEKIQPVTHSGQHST
# 5-hydroxytryptamine receptor 2A, sequence (P14842 whole entry): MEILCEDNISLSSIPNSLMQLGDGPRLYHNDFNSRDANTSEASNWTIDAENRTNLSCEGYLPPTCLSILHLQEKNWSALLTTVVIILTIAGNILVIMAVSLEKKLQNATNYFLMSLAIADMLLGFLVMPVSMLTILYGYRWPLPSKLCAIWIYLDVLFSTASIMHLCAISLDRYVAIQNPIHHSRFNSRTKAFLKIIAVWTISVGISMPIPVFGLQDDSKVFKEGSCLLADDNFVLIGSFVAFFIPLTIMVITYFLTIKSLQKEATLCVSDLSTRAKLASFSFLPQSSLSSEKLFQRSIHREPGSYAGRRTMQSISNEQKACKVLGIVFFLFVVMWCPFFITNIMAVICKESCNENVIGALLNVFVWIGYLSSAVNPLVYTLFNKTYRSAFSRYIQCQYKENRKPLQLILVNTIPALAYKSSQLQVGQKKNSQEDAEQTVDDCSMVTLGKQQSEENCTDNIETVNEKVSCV
# Adenylate cyclase type 2, sequence (P26769 whole entry): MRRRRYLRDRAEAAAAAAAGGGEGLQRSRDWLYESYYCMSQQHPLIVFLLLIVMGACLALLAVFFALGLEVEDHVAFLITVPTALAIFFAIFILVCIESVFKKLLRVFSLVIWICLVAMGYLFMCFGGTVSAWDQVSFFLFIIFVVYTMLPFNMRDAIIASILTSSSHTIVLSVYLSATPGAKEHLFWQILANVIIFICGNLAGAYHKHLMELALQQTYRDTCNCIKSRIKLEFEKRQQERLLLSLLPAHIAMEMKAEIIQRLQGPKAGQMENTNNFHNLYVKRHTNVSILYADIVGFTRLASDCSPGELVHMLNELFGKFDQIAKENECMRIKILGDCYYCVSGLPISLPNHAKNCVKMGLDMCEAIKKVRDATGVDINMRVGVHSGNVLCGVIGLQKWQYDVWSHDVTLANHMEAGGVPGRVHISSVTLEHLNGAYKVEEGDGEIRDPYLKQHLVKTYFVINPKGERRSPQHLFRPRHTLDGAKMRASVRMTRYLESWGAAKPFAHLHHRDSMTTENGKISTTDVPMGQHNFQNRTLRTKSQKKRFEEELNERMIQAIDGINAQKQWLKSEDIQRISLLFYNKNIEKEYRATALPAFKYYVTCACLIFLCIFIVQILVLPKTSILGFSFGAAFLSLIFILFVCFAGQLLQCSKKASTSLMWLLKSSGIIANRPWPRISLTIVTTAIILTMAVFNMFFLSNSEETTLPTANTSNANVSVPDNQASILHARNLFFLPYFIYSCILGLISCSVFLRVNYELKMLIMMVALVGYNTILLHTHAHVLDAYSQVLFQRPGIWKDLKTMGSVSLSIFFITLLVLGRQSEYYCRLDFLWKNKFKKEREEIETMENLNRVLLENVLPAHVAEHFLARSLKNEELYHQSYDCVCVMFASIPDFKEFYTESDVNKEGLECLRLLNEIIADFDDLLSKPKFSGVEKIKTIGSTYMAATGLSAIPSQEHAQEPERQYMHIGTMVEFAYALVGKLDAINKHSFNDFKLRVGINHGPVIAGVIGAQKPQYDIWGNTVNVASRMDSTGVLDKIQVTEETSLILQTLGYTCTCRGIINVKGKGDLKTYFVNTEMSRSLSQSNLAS
pKi [1],pKi [2],pKi [3],pKi [4],SMILES
< 5.00,6.38,–,–,Oc1cc2c(cc1O)[C@@H](c1ccccc1)CNCC2
–,8.55,6.05 and 6.01,–,CN1CCc2cc(Cl)c(O)cc2[C@@H](c2cccc3ccoc23)C1
6.45,8.04,< 5.00,8.24,CN1CCc2cc([N+](=O)[O-])c(O)cc2C(c2cccc3c2OCC3)C1 (stereo not drawn) [CAS_164252]
8.35,8.66,6.03,9.77,CN1CCc2cc(Cl)c(O)cc2C(c2cccc3c2OCC3)C1 (stereo not drawn) [NSC_132421]
–,7.40,–,–,"CN1CCc2cc(Cl)c(O)cc2[C@@H](c2ccccc2)C1 [SCH 23390,R(+)]"
